Results taken from patent US11882828B2, “Mosquito vector control compositions, methods and products utilizing same” (priority 2015, dated 2024).

Key:
[1] = test system: Aedes aegypti (Yellow fever mosquito); assay: whole plant or invertebrate; conditions: Aedes aegypti; for pest or weed control at 20 ppm: 1 h, read-out: Knockdown; for mortality at 20 ppm: 48 h
Procedure: […] Once the deposits were dry, five non-blood fed adult female Aedes aegypti (between two to five days old) were added to each well, and sustained with a 10% sucrose solution in a cotton wool plug. Assessment of the knockdown after 1 hour, and mortality after 48 hours was carried out.
(§1) In case of multiple tests, the mean value is reported.

[2] = test system: Anopheles stephensi (Indian malaria mosquito); assay: whole plant or invertebrate; conditions: Anopheles stephensi; for pest or weed control at 20 ppm: 1 h, read-out: Knockdown; for mortality at 20 ppm: 48 h
Procedure: […] Once the deposits were dry, five non-blood fed adult female Anopheles stephensi (between two to five days old) were added to each well, and sustained with a 10% sucrose solution in a cotton wool plug. Assessment of the knockdown after 1 hour, and mortality after 48 hours was carried out.
as §1

Aedes aegypti [3] = assay: whole plant or invertebrate; conditions: Aedes aegypti, 48 h
Procedure: (§2) The individual wells of six (6) well tissue culture plates were treated with 250 μl of an ethanol solution containing a test compound at a defined concentration. Once the deposits were dry, ten non-blood fed adult female Aedes aegypti or Anopheles stephensi (each between two to five day old) were added to each well, and sustained with a 10% sucrose solution in a cotton wool plug.
(§3) Assessment of the mortality was carried out at 48 hours.
(§4) Each treatment was replicated twice, with the mean mortality recorded.

Anopheles stephensi [4] = assay: whole plant or invertebrate; conditions: Anopheles stephensi, 48 h
Procedure: as §2, §3, §4

Aedes aegypti [5] = assay: Example B7: evaluation of insecticide impregnated polymer surfaces; format: in vivo; conditions: AI content 2 wt %, after one hour
Text: (§5) Preparation of polymeric sheets: Certain methoxyacrylate were Impregnated into three polymers: LDPE (low density polyethylene), HDPE (high density polyethylene) and PP (polypropylene) in different concentrations by mixing the respective polymer with a compound at high temperatures and the resultant polymeric material were then mould into thin discs or plaques.
(§6) Twenty four hours prior to the relevant assessment intervals, three to five day old non-blood fed adult mosquitoes were taken from the culture and lightly anaesthetised with carbon dioxide. Ten females were selected and placed in a 250 ml plastic cup, retained with a net lid, provided with a 10% sucrose solution soaked in a cotton wool bung and held under culturing environmental conditions.
(§7) After twenty four hours, impregnated polymer sheets (measuring about 150 mm in diameter and about 0.1 mm in thickness) were removed from storage and wrapped around the glazed side of an 11 cm ceramic tile and held in place with an elastic band. A cup of the pre-selected mosquitoes were again lightly anaesthetised with carbon dioxide and transferred from the holding cup to the base of a 9 cm plastic Petri dish. The relevant impregnated polymer sheet was placed over the Petri dish and held in place with an elastic band. Once the mosquitoes had recovered from the anaesthetic, ca. 1 minute, the impregnated polymer sheet was placed on a holding rack, such that treated side was at an angle of […] to the horizontal.
(§8) After one hour an assessment of mosquito knockdown was made. A mosquito was said to be knocked down if it was unable to right itself once it had fallen over. The mosquitoes were lightly anaesthetised again, and removed from the Petri dish exposure chamber and returned to the holding cups. The mosquitoes were supplied with a 10% sucrose solution soaked in a cotton wool bung and held under culturing environmental conditions. An assessment of mortality was made 24 hours after exposure. A mosquito was said to be dead if it is unable to right itself once it had fallen over.

Anopheles stephensi [6] = assay: as above; format: in vivo; conditions: AI content 2 wt %, after one hour
Text: as §5, §6, §7, §8

[7] = HDPE, polymer 8 to 12 weeks old
[8] = LDPE, polymer 8 to 12 weeks old

Row | SMILES | pest or weed control at 20 ppm [1] [%] | mortality at 20 ppm [1] [%] | pest or weed control at 20 ppm [2] [%] | mortality at 20 ppm [2] [%] | mortality at 5 ppm (Aedes aegypti [3]) [%] | mortality at 5 ppm (Anopheles stephensi [4]) [%] | knock-down (Aedes aegypti [5]; HDPE, polymer 2 to 4 weeks old) [%] | knock-down (Aedes aegypti [5]; HDPE, polymer 6 to 8 weeks old) [%] | knock-down (Aedes aegypti [5]; LDPE, polymer 2 to 4 weeks old) [%] | knock-down (Aedes aegypti [5]; LDPE, polymer 6 to 8 weeks old) [%] | knock-down (Aedes aegypti [5]; PP, polymer 2 to 4 weeks old) [%] | knock-down (Aedes aegypti [5]; PP, polymer 6 to 8 weeks old) [%] | knock-down (Anopheles stephensi [6]; HDPE, polymer 2 to 4 weeks old) [%] | knock-down (Anopheles stephensi [6]; [7]) [%] | knock-down (Anopheles stephensi [6]; LDPE, polymer 2 to 4 weeks old) [%] | knock-down (Anopheles stephensi [6]; [8]) [%] | knock-down (Anopheles stephensi [6]; PP, polymer 2 to 4 weeks old) [%] | knock-down (Anopheles stephensi [6]; PP, polymer 8 to 12 weeks old) [%] | knock-down (Aedes aegypti [5]; LDPE, polymer 4 to 6 weeks old) [%]
1 | CO/C=C(/C(=O)OC)c1ccccc1Oc1ncnc(C(C)(C)C)n1 [Compound 5, Methyl (E)-2-[2-[(4-tert-butyl-1,3,5-triazin-2-yl)oxy]phenyl]-3-methoxy-prop-2-enoate] | 100 | 100 | 100 | 100 | 85 | 100 | 33 | 60 | 13 | 85 | 80 | 70 | 100 | 50 | 80 | 70 | 90 | 20 | 
2 | CO/C=C(/C(=O)OC)c1ccccc1CO/N=C(\C)C(C)C [Compound 12] | 100 | 100 | 100 | 100 | 43 | 100 | 97 | 100 | 100 | 95 | 100 | 100 | 100 | 100 | 100 | 30 | 100 | 100 | 
3 | CO/C=C(/C(=O)OC)c1ccccc1Oc1cc(C(F)(F)C(F)(F)F)ncn1 [Compound 17] | 100 | 100 | 100 | 100 | 5 | 55 |  |  |  |  |  |  |  |  |  |  |  |  | 100
